Tests used:
[1] = Durability T1/2 by xenon fadometer FAC-25AX-HC; assay type: physicochemical; settings: in polymer
Protocol: (§1) 0.05 Parts of the chromene compound obtained in Example 1 was added to 70 parts of a tetraethylene glycol dimethacrylate, 15 parts of a triethylene glycol dimethacrylate, 10 parts of a glycidyl methacrylate and 5 parts of a 2-hydroethyl methacrylate, and was mixed to a sufficient degree. The mixture solution was poured into a mold constituted by a glass plate and a gasket made from an ethylene/vinyl acetate copolymer and then polymerized. The polymerization was conducted by using an air furnace while gradually raising the temperature up to 30° C. to 90° C. over a period of 18 hours, the temperature being maintained at 90° C. for two hours. After the polymerization, the polymer was taken out from the glass mold.
(§2) Color fading rate [t1/2 ]: Time required by the polymer irradiated for 120 seconds until the absorbancy decreases down to one-half of [ε(120)-ε(0)]. Durability [T1/2 ]: Time required until the absorbency at the maximum absorption wavelength decreases down to 1/2 of the initial absorbency as measured by using a xenon fadometer FAC-25AX-HC manufactured by Suga Shikenki Co.
(§3) The photochromic polymers were obtained in the same manner as described above but using the compounds obtained in Examples 2 to 33 as chromene compounds. For the purpose of comparison, properties of the compounds represented by the following formulas (A), (B), (D) and (E) were also shown in Table 3. [drawing 110]

[2] = Photochromic properties of polymer (2 mm thick) containing the chromene compound, xenon lamp irradiation 120 seconds; assay type: physicochemical; set-up: key to Color density ε(120)-ε(0): absorbance at λmax after 120 s irradiation minus before, ε(120)-ε(0); settings: for Color density ε(120)-ε(0): 120 seconds irradiation, 20° C.±1° C.; for Color density ε(120)-ε(0) / ε(0): absorbancy of the polymer not irradiated (initial color): at λmax; for Color fading rate t1/2: time until absorbancy decreases to one-half of [ε(120)-ε(0)]: after 120 seconds irradiation; for Maximum absorption wavelength λMax (developed color tone): polymer after developing color
Protocol: as §1
The obtained polymer (2 mm thick) was irradiated with light from a xenon lamp L-2480 (300 W) SHL-100 manufactured by Hamamatsu Photonics Co. through an Aero Mass filter (manufactured by Corning Co.) for 120 seconds under the conditions of 20° C.±1° C., beam intensities of 365 nm=2.4 mW/cm^2 and […]=24 μW/cm^2 on the polymer surface to develop color and to measure photochromic properties. The photochromic properties were expressed as described below.
Maximum absorption wavelength (λmax): λmax of the polymer after it has developed color was found by using a spectrophotometer (instantaneous multi-channel photodetector MCPD1000) manufactured by Otsuka Denshi Kogyo Co.
ε(120): Absorbancy of the polymer using light of a maximum absorption wavelength after it was irradiated under the above-mentioned conditions for 120 seconds.
ε(0): Absorbancy of the polymer that has not been irradiated using light of a wavelength same as the maximum absorption wavelength of light with which the polymer was irradiated.
ε(120)-ε(0): Color density
as §2, §3

Row | SMILES | Durability T1/2: time until absorbancy at maximum absorption wavelength decreases to 1/2 of the initial [1] [h] | Color density ε(120)-ε(0) [2] | Color fading rate t1/2: time until absorbancy decreases to one-half of [ε(120)-ε(0)] [2] [min] | ε(0): absorbancy of the polymer not irradiated (initial color) [2] | Maximum absorption wavelength λMax (developed color tone) [2] [nm]
1 | Fc1occc1C1(c2ccc3ccccc3c2)C=Cc2c(ccc3ccccc23)O1 (stereo not shown) [Compound 32] | 490 | 1.28 | 1.08 | 0.05 | 450
2 | Fc1c(C2(c3ccco3)C=Cc3c(ccc4ccccc34)O2)ccc2ccccc12 (stereo not shown) [Compound 31] | 490 | 1.44 | 1.33 | 0.06 | 480
3 | Fc1sccc1C1(c2ccc3ccccc3c2)C=Cc2c(ccc3ccccc23)O1 (stereo not shown) [Compound 7] | 500 | 1.30 | 1.03 | 0.05 | 456
4 | N#Cc1cc(Cl)c(C2(c3ccoc3)C=Cc3c(ccc4ccccc34)O2)s1 (stereo not shown) [Compound 24] | 480 | 1.12 | 1.08 | 0.05 | 458
5 | C1=CC(c2ccco2)(c2cccc3ccccc23)Oc2ccc3ccccc3c21 (stereo not shown) [Compound 3] | 480 | 1.49 | 1.38 | 0.08 | 496
6 | COc1ccc2ccc3c(c2c1)C=CC(c1ccco1)(c1coc2ccccc12)O3 (stereo not shown) [Compound 14] | 480 | 1.06 | 1 | 0.07 | 484
7 | COc1ccc2c3c(ccc2c1)OC(c1cccs1)(c1cccc2ccccc12)C=C3 (stereo not shown) [Compound 17] | 470 | 1.23 | 1.4 | 0.05 | 502
8 | C1=CC(c2ccsc2)(c2cc3ccccc3o2)Oc2cc(N3CCCCC3)c3ccccc3c21 (stereo not shown) [Compound 10] | 510 | 1.33 | 1.37 | 0.10 | 460
9 | C1=CC(c2ccsc2)(c2ccco2)Oc2ccc3ccccc3c21 (stereo not shown) [Compound 6] | 520 | 1.02 | 0.75 | 0.07 | 464
10 | CC(=O)Oc1ccc2c3c(ccc2c1)OC(c1ccc(C)s1)(c1cccc2ccccc12)C=C3 (stereo not shown) [Compound 20] | 480 | 1.42 | 1.48 | 0.05 | 506
11 | Cn1cccc1C1(c2ccc3ccccc3c2)C=Cc2c(ccc3ccccc23)O1 (stereo not shown) [Compound 8] | 440 | 1.00 | 1 | 0.06 | 486
12 | C1=CC(c2ccco2)(c2csc3ccccc23)Oc2ccc3ccccc3c21 (stereo not shown) [Compound 26] | 510 | 1.05 | 0.833 | 0.06 | 460
13 | Fc1c(C2(c3cccs3)C=Cc3c(ccc4ccccc34)O2)ccc2ccccc12 (stereo not shown) [Compound 1] | 510 | 1.50 | 1.2 | 0.04 | 456
14 | COc1cc2c(c3ccccc13)C=CC(c1cc(Cl)c3ccccc3c1)(c1cc3ccccc3s1)O2 (stereo not shown) [Compound 29] | 480 | 1.30 | 1.37 | 0.12 | 440
15 | COc1ccc2c3c(ccc2c1)OC(c1cncs1)(c1cscc1C)C=C3 (stereo not shown) [Compound 19] | 450 | 1.46 | 1.25 | 0.06 | 490
16 | C1=CC(c2ccccc2)(c2ccccc2)Oc2ccc3ccccc3c21 [A, reference compound] | 460 | 0.52 | 0.667 | 0.04 | 436
17 | Fc1c(C2(c3ccsc3)C=Cc3c(ccc4ccccc34)O2)ccc2ccccc12 (stereo not shown) [Compound 30] | 495 | 1.18 | 1.17 | 0.04 | 450
18 | Fc1ccsc1C1(c2ccc3ccccc3c2)C=Cc2c(ccc3ccccc23)O1 (stereo not shown) [Compound 18] | 505 | 1.15 | 1.13 | 0.04 | 456
19 | C1=CC(c2ccc3ccccc3c2)(c2nccs2)Oc2ccc3ccccc3c21 (stereo not shown) [Compound 16] | 485 | 1.09 | 0.7 | 0.06 | 466
20 | Fc1cc2ccccc2cc1C1(c2cccs2)C=Cc2c(ccc3ccccc23)O1 (stereo not shown) [Compound 33] | 495 | 1.11 | 1.13 | 0.04 | 460
21 | C1=CC(c2ncco2)(c2csc3ccccc23)Oc2ccc3cc(Cc4ccccc4)ccc3c21 (stereo not shown) [Compound 13] | 490 | 1.02 | 1.03 | 0.07 | 480
22 | CCOc1c(C2(c3ccco3)C=Cc3c(ccc4cc(OC)c(C(C)=O)cc34)O2)ccc2ccccc12 (stereo not shown) [Compound 12] | 450 | 1.34 | 1.1 | 0.08 | 510
23 | CC(C)(C)Oc1ccc2ccc3c(c2c1)C=CC(c1cccs1)(c1ccc2ccccc2c1Cl)O3 (stereo not shown) [Compound 21] | 470 | 1.35 | 1.17 | 0.05 | 450
